# Numbers after ± are expanded uncertainties.
# Conditions: 84 kPa, Liquid, Pycnometric method
compound,measurement,setting,value
CN(CCO)CCO [N-methyldiethanolamine],mass density,293.15 K,1041.12 ± 1.9 kg/m3
same,mass density,303.15 K,1033.6 ± 1.9 kg/m3
same,mass density,313.15 K,1025.83 ± 1.9 kg/m3
same,mass density,323.15 K,1017.8 ± 1.9 kg/m3
same,mass density,333.15 K,1010.8 ± 1.9 kg/m3
same,mass density,343.15 K,1002.76 ± 1.9 kg/m3
